Holding throughout (type): biochemical
Experiment [1] deals with T1, Human PDE4A3 (Homo sapiens, UniProt P27815).
T1 construct: His6 (N); FLAG (C); made in house; host or cells: insect cells (baculovirus, pFastBac)
The experiment can be described thus: PDE4A3 Scintillation Proximity Assay (SPA), inhibition of enzyme activity. Particulars: geometric mean of 2-7 determinations unless otherwise indicated (b: ≥8 determinations; c: single determination), 1 μM cAMP, 30 min at 25° C., read-out: Human PDE4A FL. Put shortly:
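Human PDE4A3 (aa 2–825, His6/FLAG-tagged, insect-cell expressed) at 80 pM hydrolyses 1 μM cAMP including 20 nM 3H-cAMP, ~20% conversion. Buffer is 50 mM Tris pH 7.5, 1.3 mM MgCl2, 0.01% Brij. Incubated 30 min at 25 °C with inhibitor range, stopped with yttrium silicate SPA beads, read after 8 h settling.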
Background: In a scintillation proximity assay essentially only radioactivity close to the scintillant gives light.

Experiment [2] deals with T2, Human PDE4C1 (Homo sapiens, UniProt Q08493).
T2 construct: His6 (N); FLAG (C); made in house; host or cells: insect cells (baculovirus, pFastBac)
The experiment can be described thus: PDE4C1 Scintillation Proximity Assay (SPA), inhibition of enzyme activity. Particulars: geometric mean of 2-7 determinations unless otherwise indicated (b: ≥8 determinations; c: single determination), 1 μM cAMP, 30 min at 25° C., read-out: Human PDE4C FL. In short, it runs like this: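 Human recombinant FLAG/His-purified PDE4C1 from insect cells at 40 pM, with 1 μM cAMP (3H-cAMP tracer) in Tris pH 7.5, 1.3 mM MgCl2, 0.01% Brij, ~20% substrate turnover. Incubation 30 min at 25° C with a range of inhibitor concentrations. Stopped with yttrium silicate SPA beads and read by scintillation after 8 h settling.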

The target in experiment [3] is T3, Human PDE4B1 (Homo sapiens, UniProt Q07343, S133E/S654A/S659A/S661A).
T3 construct: His6 (N); thrombin cleavage site (N); made in house; host or cells: insect cells (baculovirus, pFastBac)
The experiment can be described thus: PDE4B1 Scintillation Proximity Assay (SPA), inhibition of enzyme activity. Particulars: geometric mean of 2-7 determinations unless otherwise indicated (b: ≥8 determinations; c: single determination); 1 μM cAMP, 30 min at 25° C.; read-out: Human PDE4B FL; IC50. In short, it runs like this: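 His-tagged human PDE4B1 expressed in insect cells and purified by Ni-NTA and Source 15Q was assayed in 50 mM Tris pH 7.5, 1.3 mM MgCl2, 0.01% Brij. The substrate was 1 μM cAMP with ³H-cAMP tracer, at about 20% conversion, for 30 min at 25 °C. Yttrium silicate SPA beads stopped the reaction; counts were read after 8 h settling.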

The target in experiment [4] is T4, human PDE4D3 (Homo sapiens, UniProt Q08499).
T4 construct: His6 (C); made in house; host or cells: insect cells (baculovirus, pFastBac)
The experiment can be described thus: PDE4D3 Scintillation Proximity Assay (SPA), inhibition of enzyme activity. Particulars: geometric mean of 2-7 determinations unless otherwise indicated (b: ≥8 determinations; c: single determination); 1 μM cAMP, 30 min at 25° C.; read-out: Human PDE4D FL; IC50. In short, it runs like this:
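Recombinant enzyme from insect cells, Ni-NTA and Q Sepharose purified, used at 10 pM in 50 mM Tris pH 7.5, 1.3 mM MgCl2, 0.01% Brij. Substrate 1 μM cAMP with 3H-cAMP tracer, ~20% conversion, inhibitor range, 30 min at 25°C. Stopped with yttrium silicate SPA beads and scintillation read.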

T4 sequence (Q08499 186-808): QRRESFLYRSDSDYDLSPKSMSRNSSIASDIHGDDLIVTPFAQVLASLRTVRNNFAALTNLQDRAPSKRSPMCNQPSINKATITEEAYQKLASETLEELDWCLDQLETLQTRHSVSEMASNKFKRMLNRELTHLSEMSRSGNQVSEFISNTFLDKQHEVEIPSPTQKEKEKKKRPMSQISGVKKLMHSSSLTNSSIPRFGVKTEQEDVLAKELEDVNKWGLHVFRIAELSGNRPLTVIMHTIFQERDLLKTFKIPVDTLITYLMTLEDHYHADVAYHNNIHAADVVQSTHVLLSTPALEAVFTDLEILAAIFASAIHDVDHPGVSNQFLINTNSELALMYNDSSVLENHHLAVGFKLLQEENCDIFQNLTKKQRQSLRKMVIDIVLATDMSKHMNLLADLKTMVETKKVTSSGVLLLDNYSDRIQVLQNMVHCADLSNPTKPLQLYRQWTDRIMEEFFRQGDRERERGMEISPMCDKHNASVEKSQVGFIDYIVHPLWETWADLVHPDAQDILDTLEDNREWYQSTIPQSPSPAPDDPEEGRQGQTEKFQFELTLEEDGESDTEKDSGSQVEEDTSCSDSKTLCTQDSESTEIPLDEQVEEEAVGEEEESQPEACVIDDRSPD
T1 sequence (P27815 2-825 isoform P27815-6): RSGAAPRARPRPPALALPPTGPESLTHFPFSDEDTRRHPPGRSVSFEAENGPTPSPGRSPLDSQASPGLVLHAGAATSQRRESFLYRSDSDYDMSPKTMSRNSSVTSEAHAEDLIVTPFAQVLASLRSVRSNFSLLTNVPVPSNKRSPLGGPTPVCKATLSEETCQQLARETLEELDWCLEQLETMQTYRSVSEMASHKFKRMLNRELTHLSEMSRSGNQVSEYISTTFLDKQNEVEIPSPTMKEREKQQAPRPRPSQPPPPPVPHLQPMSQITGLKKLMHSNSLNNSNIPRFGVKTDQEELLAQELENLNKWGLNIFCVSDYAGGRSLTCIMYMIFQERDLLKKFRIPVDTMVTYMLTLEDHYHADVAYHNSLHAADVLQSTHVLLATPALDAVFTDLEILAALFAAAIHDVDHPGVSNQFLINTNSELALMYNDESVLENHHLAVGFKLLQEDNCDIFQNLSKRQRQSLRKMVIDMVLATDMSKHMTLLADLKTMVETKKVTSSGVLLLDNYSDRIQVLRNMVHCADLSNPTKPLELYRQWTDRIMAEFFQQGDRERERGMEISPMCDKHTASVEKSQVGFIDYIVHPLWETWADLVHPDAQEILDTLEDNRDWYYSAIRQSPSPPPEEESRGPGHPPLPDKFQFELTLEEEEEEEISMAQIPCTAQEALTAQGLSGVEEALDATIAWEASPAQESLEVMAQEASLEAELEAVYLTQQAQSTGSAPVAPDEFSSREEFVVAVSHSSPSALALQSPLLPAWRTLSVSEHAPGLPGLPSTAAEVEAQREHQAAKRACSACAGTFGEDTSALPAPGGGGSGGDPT
T3 sequence (Q07343 122-736 S133E/S654A/S659A/S661A): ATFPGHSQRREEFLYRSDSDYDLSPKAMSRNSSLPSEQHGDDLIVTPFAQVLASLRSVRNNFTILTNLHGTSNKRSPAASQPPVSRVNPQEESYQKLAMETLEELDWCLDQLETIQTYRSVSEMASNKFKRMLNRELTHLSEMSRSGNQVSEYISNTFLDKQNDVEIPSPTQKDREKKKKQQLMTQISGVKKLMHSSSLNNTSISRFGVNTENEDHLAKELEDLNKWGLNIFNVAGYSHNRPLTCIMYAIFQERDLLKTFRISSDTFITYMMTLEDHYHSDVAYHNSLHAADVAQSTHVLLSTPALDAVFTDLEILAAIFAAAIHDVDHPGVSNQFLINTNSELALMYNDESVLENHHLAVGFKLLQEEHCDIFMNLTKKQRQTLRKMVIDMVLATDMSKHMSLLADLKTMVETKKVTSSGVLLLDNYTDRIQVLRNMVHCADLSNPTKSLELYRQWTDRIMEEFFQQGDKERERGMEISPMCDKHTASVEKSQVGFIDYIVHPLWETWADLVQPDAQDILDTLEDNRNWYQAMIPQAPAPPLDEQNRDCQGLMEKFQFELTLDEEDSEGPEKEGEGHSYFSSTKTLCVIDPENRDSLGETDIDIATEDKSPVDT
T2 sequence (Q08493 2-712): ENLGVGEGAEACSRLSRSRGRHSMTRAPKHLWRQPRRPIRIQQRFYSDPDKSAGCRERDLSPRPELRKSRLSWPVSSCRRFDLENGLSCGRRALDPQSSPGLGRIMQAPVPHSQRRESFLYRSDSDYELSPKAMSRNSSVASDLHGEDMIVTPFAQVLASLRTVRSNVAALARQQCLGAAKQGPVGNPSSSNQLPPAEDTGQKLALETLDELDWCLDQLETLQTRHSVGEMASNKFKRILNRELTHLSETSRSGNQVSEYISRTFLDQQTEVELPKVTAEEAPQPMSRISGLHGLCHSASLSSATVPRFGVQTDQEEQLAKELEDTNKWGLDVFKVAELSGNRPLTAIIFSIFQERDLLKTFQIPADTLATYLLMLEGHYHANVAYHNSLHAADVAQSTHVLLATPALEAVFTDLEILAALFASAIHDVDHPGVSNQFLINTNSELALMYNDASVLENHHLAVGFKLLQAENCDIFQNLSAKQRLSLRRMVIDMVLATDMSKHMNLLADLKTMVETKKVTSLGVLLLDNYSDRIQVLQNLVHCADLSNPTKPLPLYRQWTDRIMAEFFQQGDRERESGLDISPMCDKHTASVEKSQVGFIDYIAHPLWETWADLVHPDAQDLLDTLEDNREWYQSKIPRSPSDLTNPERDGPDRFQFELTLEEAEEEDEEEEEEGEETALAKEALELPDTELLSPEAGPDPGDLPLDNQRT

As for `O=C(NC1CC1)c1nn2cccnc2c1-c1ccc2ncoc2c1` [Example 43, 3-(1,3-benzoxazol-6-yl)-N-cyclopropylpyrazolo[1,5-a]pyrimidine-2-carboxamide], the IC50 in experiment [1] was 146 nM; in experiment [2] it was 178 nM; in experiment [3], 221 nM; in experiment [4], greater than 14400 nM.
The like results for `N#Cc1ccc(-c2c(C(=O)NC3CC3)nn3cccnc23)cn1` [Example 44, 3-(6-cyanopyridin-3-yl)-N-cyclopropylpyrazolo[1,5-a]pyrimidine-2-carboxamide] were, in that order, 192 nM, 898 nM, 358 nM and greater than 11900 nM.
The like results for `N#Cc1cc(F)c(-c2c(C(=O)NC3CC3)nn3cccnc23)cc1F` [Example 45, 3-(4-cyano-2,5-difluorophenyl)-N-cyclopropylpyrazolo[1,5-a]pyrimidine-2-carboxamide] were, in that order, 22 nM, 42.1 nM, 51 nM and 1320 nM.
The like results for `N#Cc1cc(F)c(-c2c(C(=O)N3CCC3)nn3cccnc23)cc1F` [Example 46, 4-[2-(azetidin-1-ylcarbonyl)pyrazolo[1,5-a]pyrimidin-3-yl]-2,5-difluorobenzonitrile] were, in that order, 14.7 nM, 44 nM, 54.5 nM and 979 nM.
For the molecule `O=C(NC1CC1)c1nn2cccnc2c1-c1cc(F)c(Cl)cc1F` [Example 47, 3-(4-chloro-2,5-difluorophenyl)-N-cyclopropylpyrazolo[1,5-a]pyrimidine-2-carboxamide], the IC50 in experiment [1] is 4.69 nM; in experiment [2], 13.9 nM; in experiment [3] it was 24.4 nM; in experiment [4], 819 nM.
The like results for `O=C(c1nn2cccnc2c1-c1cccc(Cl)c1)N1CCC1` [Example 48, azetidin-1-yl[3-(3-chlorophenyl)pyrazolo[1,5-a]pyrimidin-2-yl]methanone] were, in that order, 167 nM, 76.4 nM, 236 nM and greater than 16000 nM.
The like results for `O=C(c1nn2cccnc2c1-c1cc(F)c(Cl)cc1F)N1CCC1` [Example 49, azetidin-1-yl[3-(4-chloro-2,5-difluorophenyl)pyrazolo[1,5-a]pyrimidin-2-yl]methanone] were, in that order, 7.28 nM, 29.6 nM, 63.5 nM and 1290 nM.
Take `CCNC(=O)c1nn2cccnc2c1-c1ccnc(OC(F)F)c1` [Example 50, 3-[2-(difluoromethoxy)pyridin-4-yl]-N-ethylpyrazolo[1,5-a]pyrimidine-2-carboxamide]: the IC50 in experiment [1] was 17.7 nM; in experiment [2], 70.8 nM; in experiment [3], 48.3 nM; in experiment [4], greater than 4870 nM.
Consider `Cc1cc(Cl)ccc1-c1c(C(=O)NC(C)C)nn2cccnc12` [Example 51, 3-(4-chloro-2-methylphenyl)-N-(propan-2-yl)pyrazolo[1,5-a]pyrimidine-2-carboxamide], for which the IC50 is 144 nM in experiment [1], 314 nM in experiment [2], 488 nM in experiment [3] and greater than 16500 nM in experiment [4].
The like results for `CCNC(=O)c1nn2cccnc2c1-c1ccc(Cl)cc1` [Example 52, 3-(4-chlorophenyl)-N-ethylpyrazolo[1,5-a]pyrimidine-2-carboxamide] were, in that order, 142 nM, 115 nM, 234 nM and 5930 nM.
The like results for `CCNC(=O)c1nn2cccnc2c1-c1ccc(Cl)c(F)c1` [Example 53, 3-(4-chloro-3-fluorophenyl)-N-ethylpyrazolo[1,5-a]pyrimidine-2-carboxamide] were, in that order, 7.66 nM, 21.8 nM, 32 nM and 830 nM.
In the case of `Cc1cc(Cl)c(F)cc1-c1c(C(=O)NC(C)C)nn2cccnc12` [Example 54, 3-(4-chloro-5-fluoro-2-methylphenyl)-N-(propan-2-yl)pyrazolo[1,5-a]pyrimidine-2-carboxamide], the IC50 turned out to be 12.9 nM in experiment [1], 59 nM in experiment [2], 24.5 nM in experiment [3] and 469 nM in experiment [4].
As to `Cc1cc(Cl)ccc1-c1c(C(=O)NC2CC2)nn2cc(F)cnc12` [Example 55, 3-(4-chloro-2-methylphenyl)-N-cyclopropyl-6-fluoropyrazolo[1,5-a]pyrimidine-2-carboxamide], the IC50 in experiment [1] came out at 8.75 nM; in experiment [2], 28.5 nM; in experiment [3], 30.5 nM; in experiment [4], 1060 nM.
The like results for `O=C(NC1CC1)c1nn2cc(F)cnc2c1-c1ccnc(OC(F)F)c1` [Example 56, N-cyclopropyl-3-[2-(difluoromethoxy)pyridin-4-yl]-6-fluoropyrazolo[1,5-a]pyrimidine-2-carboxamide] were, in that order, 3.92 nM, 19.4 nM, 22.3 nM and 78.4 nM.
Turning to `O=C(NC1CC1)c1nn2cc(F)cnc2c1-c1cc(F)c(Cl)c(F)c1` [Example 57, 3-(4-chloro-3,5-difluorophenyl)-N-cyclopropyl-6-fluoropyrazolo[1,5-a]pyrimidine-2-carboxamide], the IC50 was 0.461 nM in experiment [1], 2.83 nM in experiment [2], 2.71 nM in experiment [3] and 92.1 nM in experiment [4].
With `O=C(NC1CC1)c1nn2cc(F)cnc2c1-c1ccc(Cl)c(F)c1F` [Example 58, 3-(4-chloro-2,3-difluorophenyl)-N-cyclopropyl-6-fluoropyrazolo[1,5-a]pyrimidine-2-carboxamide], the IC50 in experiment [1] worked out at 4.04 nM; in experiment [2] it was 9 nM; in experiment [3], 20.1 nM; in experiment [4], 430 nM.
The like results for `O=C(NC1CC1)c1nn2cc(F)cnc2c1-c1ccc(Cl)c(F)c1` [Example 59, 3-(4-chloro-3-fluorophenyl)-N-cyclopropyl-6-fluoropyrazolo[1,5-a]pyrimidine-2-carboxamide] were, in that order, 1.19 nM, 7.72 nM, 4.93 nM and 159 nM.
The like results for `O=C(NC1CC1)c1nn2cccnc2c1-c1ccc2ocnc2c1` [Example 60, 3-(1,3-benzoxazol-5-yl)-N-cyclopropylpyrazolo[1,5-a]pyrimidine-2-carboxamide] were, in that order, 47.1 nM, 650 nM, 226 nM and greater than 15500 nM.
The like results for `Cc1cc(Cl)c(F)cc1-c1c(C(=O)N2CCC2)nn2cccnc12` [Example 61, azetidin-1-yl[3-(4-chloro-5-fluoro-2-methylphenyl)pyrazolo[1,5-a]pyrimidin-2-yl]methanone] were, in that order, 2 nM, 20 nM, 8 nM and 98 nM.
On to `N#Cc1c(F)cc(-c2c(C(=O)N3CCC3)nn3cccnc23)cc1F` [Example 62, 4-[2-(azetidin-1-ylcarbonyl)pyrazolo[1,5-a]pyrimidin-3-yl]-2,6-difluorobenzonitrile], for which the IC50 in experiment [1] was found to be 4.33 nM; in experiment [2], 37.8 nM; in experiment [3] it was 17.3 nM; in experiment [4], 242 nM.
The like results for `Cc1ccc(-c2c(C(=O)NC3CC3)nn3cc(F)cnc23)cc1F` [Example 63, N-cyclopropyl-6-fluoro-3-(3-fluoro-4-methylphenyl)pyrazolo[1,5-a]pyrimidine-2-carboxamide] were, in that order, 4.02 nM, 9.5 nM, 13.2 nM and 459 nM.
The like results for `Cc1cc(Cl)c(F)cc1-c1c(C(=O)NC2CC2)nn2cc(F)cnc12` [Example 64, 3-(4-chloro-5-fluoro-2-methylphenyl)-N-cyclopropyl-6-fluoropyrazolo[1,5-a]pyrimidine-2-carboxamide] were, in that order, 1 nM, 4.47 nM, 2 nM and 52.6 nM.
